Experimental data taken from patent US20180250306A1, “ALDEHYDE CONJUGATES AND USES THEREOF” (ALDEYRA THERAPEUTICS, INC., priority 2015, published 2018).

Experiments:
[1] = Consumption of 4HNE over time (HPLC, 254 nm)
Excerpt: 5 of 6 samples show consumption of 4HNE. One sample (2-(3-aminoquinolin-2-yl)propan-2-ol) overlaps 4HNE HPLC peak using current method. Best fit lines over this period give poorer fit to data than product formation data. Rate of 4HNE consumption can be used as an approximation of binding kinetics. […] The data were used to rank relatively each of the samples examined, including NS-2 but excluding 2-(3-aminoquinolin-2-yl)propan-2-ol.

NFκB [2] = assay: Western Blot of NFκB levels in cardiac fibroblasts; format: cell-based, neonatal rats
Protocol: (§1) Thirty hearts from neonatal rats were minced and digested (Neonatal Cardiomyocyte Isolation System, LK003303, Worthington). After tissue digestion and cell dissociation, cell suspensions were plated into 35 mm dishes or onto coverslips in wells of 24-well plates. Serum-free DMEM was added to the cell suspensions and the cells allowed to adhere for 2 hrs. After two hours, the cell suspension was removed and the adherent cells were fed with DMEM containing 10% fetal bovine serum (FBS). Cells were maintained in DMEM+10% FBS for 24 hours before treatments. Treatment duration was 24 hours.
(§2) Cell samples were divided in to 2 groups, stimulated with H2O2 or not stimulated with H2O2. […] The cells that were treated with H2O2 contained a final concentration of 0.001% in the wells. Drug was dissolved in 9.5% Captisol®, to a stock concentration of 5 mg/ml. […] Cells were treated for 24 hours then either fixed for immunostaining or collected as lysates for Western Blot analysis.
Whole cell lysates were used for Western blotting; nuclear and cytosolic fractions were not prepared. DMEM from cells plated in 35 mm plates was removed, the cells rinsed quickly in PBS, then incubated in 500 ul cold RIPA buffer for 20-30 minutes at 4° C. under gentle rocking. Following RIPA incubation, cells were scraped from the dish using cell scrapers and frozen at −80° C. overnight to increase cell lysing. […]

[3] = test system: Primary rat cortical cultures; assay: LDH cytotoxicity assay, aldehyde-mediated cell death in neurons; format: cell-based
Protocol: Primary rat cortical cultures are placed in an incubator for 24 or 48 hours and treated with various concentrations of disclosed compounds. Then 20 μL of the culture media is removed for an LDH assay as described in Bergmeyer et al., Methods of Enzymatic Analysis, 3rd ed. (1983).

[4] = Preliminary single dose i.p. pharmacokinetics of NS2 and NS2-SSA adduct formation in wild type mice; format: in vivo, wild type C57B16 mice
Protocol: Mice were 41-46 days old on the day of treatment, and groups (n=3) were balanced for age, gender and starting weight (18±3 g). […] The results of this study informed the design of a subsequent 8-hour single dose study to measure additional biochemical outcomes (GHB and related metabolites) in both SSADH deficient mice and wild type littermates.
A preliminary assessment of single dose, i.p. pharmacokinetics (PK) was conducted in wild type C57B16 mice. Mice were 41-46 days old at the time of dosing. […] Three mice per timepoint were used for pharmacokinetic analysis. The study design is outlined in Table 6 below.
Homogenates (100 μL) were protein-precipitated with cold acetonitrile containing 0.1% formic acid (900 μL). Serum samples (25 μL) were protein-precipitated with 425 μL of cold acetonitrile containing 0.1% formic acid. Samples were centrifuged at 2,500×g then supernatant was transferred to a clean tube and dried under a constant heated flow of nitrogen (50° C.). Samples were reconstituted in 100 μL of mobile phase A (water with 0.1% formic acid, LC-MS/MS grade reagents).
These studies were performed only in wild-type C57B16 mice (n=21). […] The mice ranged in age from 41-46 days of age.

NFκB [5] = assay: NFκB translocation to the nucleus of cardiac fibroblasts (immunostaining); format: cell-based, neonatal rats; settings: unstimulated cells; for cells with NFκB localization in nuclei: 24 hours (untreated 76.6%)
Protocol: as §1, §2
After 24 hours of treatment, cells on cover slips were rinsed twice with PBS, fixed in 1% paraformaldehyde for 10 minutes then rinsed in PBS for immunostaining. Cells were permeabilized for 18 minutes in 0.1% Triton-X 100 in PBS, then rinsed three times in PBS for 15 minutes each. Following the rinses, cover slips were incubated in Image-IT FX Signal Enhancer (Invitrogen) to reduce background intensities in images. Subsequently, cells were washed three times 15 min with PBS, followed by one hour of blocking in 10% Normal Goat Serum Cells and 0.05% Triton-X 100, and then incubated overnight in 4° C. with primary antibodies diluted in PBS with 2% Normal Goat Serum and 0.05% Triton-X 100. Antibodies were applied at the following concentrations: Alpha-Smooth Muscle Actin 1:200 (V5228, Sigma-Aldrich), Vimentin 1:200 (V6630, Sigma-Aldrich) and NFκB 1:200 (C-20, Santa Cruz Biotech). Following overnight incubation, cover slips were brought to room temperature over 10 minutes and then rinsed in PBS for 15 min. […]

[6] = wild type mice, single dose 10 mg/kg i.p.

Compound: CC(C)(O)c1nc2ccc(Cl)cc2cc1N [NS2, 2-(3-amino-6-chloroquinolin-2-yl)propan-2-ol]
- Gradient of 4HNE consumption ([1]; 23 h): (Gradient −0.04,
- Gradient of 4HNE consumption ([1]; first 7 h, analysis at 254 nm): (Gradient −0.15,
- Consumption of 4HNE, ranking, 7 Hours ([1]; rank from most effective (1) to least): 1
- Consumption of 4HNE, ranking, 23 Hours ([1]; rank from most effective (1) to least, ranks 1-4 essentially identical): 3
- NFκB level (Western Blot, whole cell lysate) (NFκB [2]; H2O2-stimulated cells, 100 μM or 1 mM): significant decreases
- NFκB level (Western Blot, whole cell lysate) (NFκB [2]; non-stimulated cells): significantly decreased
- aldehyde-mediated cell death in neurons [3]: prevent
- concentration at 24 h ([4]; both sexes, C57B16 (wild type), mouse, serum, ip, wild type mice, single dose 10 mg/kg i.p., by 24 hours): < 50 nM
- tolerability ([4]; mouse, in vivo, ip, 10 mg/kg): tolerated
- brain penetration of NS2 [4, 6]: good brain penetration
- order of NS2 pharmacokinetics [4, 6]: first-order pharmacokinetics
- peak serum concentration of NS2 [4, 6]: 43.1 ± 15.4 µM
- time to peak serum concentration of NS2 [4, 6]: 0.5 h
- peak concentration of NS2 in brain ([4]; wild type mice, single dose 10 mg/kg i.p., brain): 52.4±22.9
- peak concentration of NS2 in liver ([4]; wild type mice, single dose 10 mg/kg i.p., liver): 116±3.1
- cells with NFκB localization in nuclei (NFκB [5]; 10 μM): 30.7%
- cells with NFκB localization in nuclei (NFκB [5]; 100 μM): 35.7%
- cells with nuclear NFκB (NFκB [5]; 1 mM, very few cells, not conclusive): no cells
